From ChEMBL document CHEMBL1201862, “PubChem BioAssay data set” (2004)
Active and inactive are the calls of the source.

Assays:
[1] = biological target: T1, Zinc finger protein mex-5 (Caenorhabditis elegans, UniProt Q9XUB2); test: potency of MEX-5 RNA-binding blockers – biochemical, C. elegans, fluorescence polarization, dose response (AID 1960)
T1 sequence (Q9XUB2 whole entry): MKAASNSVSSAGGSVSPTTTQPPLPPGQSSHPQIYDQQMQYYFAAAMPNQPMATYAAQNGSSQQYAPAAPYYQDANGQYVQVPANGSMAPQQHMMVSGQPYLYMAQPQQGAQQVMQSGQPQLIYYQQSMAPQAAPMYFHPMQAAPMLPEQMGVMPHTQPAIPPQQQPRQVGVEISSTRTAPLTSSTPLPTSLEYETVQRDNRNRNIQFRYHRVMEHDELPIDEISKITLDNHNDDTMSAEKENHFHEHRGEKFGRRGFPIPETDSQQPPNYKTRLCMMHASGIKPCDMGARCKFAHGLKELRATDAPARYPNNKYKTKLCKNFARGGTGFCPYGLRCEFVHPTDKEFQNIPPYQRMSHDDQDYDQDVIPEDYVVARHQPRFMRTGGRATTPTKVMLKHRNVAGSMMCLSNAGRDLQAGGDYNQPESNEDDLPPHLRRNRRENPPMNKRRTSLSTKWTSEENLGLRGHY

[2] = biological target: T2, RNA-binding protein pos-1 (Caenorhabditis elegans, UniProt G5EF15); test: disruptors of C. elegans POS-1 RNA interaction – biochemical, fluorescence polarization, dose response (AID 1964);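 note: purified POS-1 fused to maltose binding protein made in E. coli; potency of compounds blocking POS-1 binding to fluorescent RNA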
T2 sequence (G5EF15 whole entry): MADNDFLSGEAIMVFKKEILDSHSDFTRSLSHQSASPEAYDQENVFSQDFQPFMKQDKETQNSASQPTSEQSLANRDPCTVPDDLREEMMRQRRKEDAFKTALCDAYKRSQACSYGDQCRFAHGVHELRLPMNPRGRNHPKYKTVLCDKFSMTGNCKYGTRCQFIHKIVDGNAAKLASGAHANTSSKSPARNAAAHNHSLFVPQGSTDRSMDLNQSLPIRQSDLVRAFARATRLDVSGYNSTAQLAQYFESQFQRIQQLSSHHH

[3] = reduction of Shn3 3'UTR-driven luciferase in osteoblasts – cell-based, Clone20 osteoblasts, firefly luciferase, cherry-picked, dose response (AID 624132); type: functional;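 note: firefly luciferase luminescence from reporter carrying the Shn3 3'UTR in osteoblasts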
[4] = non-specific 3'UTR reporter inhibition in Clone20-Shn3RL – cell-based, Renilla luciferase, cherry-picked, counter-screen for Shn3 inhibitor project, dose response (AID 624133); type: functional
[5] = biological target: T3, Fatty acid synthase (Homo sapiens, UniProt P49327); test: inhibition of human FAS-TE enzyme activity – biochemical, endpoint fluorescence intensity, uHTS hits, dose response (AID 624327); type: functional;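 note: fluorescence from hydrolysis of an O-methyl fluorescein acyl ester substrate by the enzyme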
T3 sequence (P49327 whole entry): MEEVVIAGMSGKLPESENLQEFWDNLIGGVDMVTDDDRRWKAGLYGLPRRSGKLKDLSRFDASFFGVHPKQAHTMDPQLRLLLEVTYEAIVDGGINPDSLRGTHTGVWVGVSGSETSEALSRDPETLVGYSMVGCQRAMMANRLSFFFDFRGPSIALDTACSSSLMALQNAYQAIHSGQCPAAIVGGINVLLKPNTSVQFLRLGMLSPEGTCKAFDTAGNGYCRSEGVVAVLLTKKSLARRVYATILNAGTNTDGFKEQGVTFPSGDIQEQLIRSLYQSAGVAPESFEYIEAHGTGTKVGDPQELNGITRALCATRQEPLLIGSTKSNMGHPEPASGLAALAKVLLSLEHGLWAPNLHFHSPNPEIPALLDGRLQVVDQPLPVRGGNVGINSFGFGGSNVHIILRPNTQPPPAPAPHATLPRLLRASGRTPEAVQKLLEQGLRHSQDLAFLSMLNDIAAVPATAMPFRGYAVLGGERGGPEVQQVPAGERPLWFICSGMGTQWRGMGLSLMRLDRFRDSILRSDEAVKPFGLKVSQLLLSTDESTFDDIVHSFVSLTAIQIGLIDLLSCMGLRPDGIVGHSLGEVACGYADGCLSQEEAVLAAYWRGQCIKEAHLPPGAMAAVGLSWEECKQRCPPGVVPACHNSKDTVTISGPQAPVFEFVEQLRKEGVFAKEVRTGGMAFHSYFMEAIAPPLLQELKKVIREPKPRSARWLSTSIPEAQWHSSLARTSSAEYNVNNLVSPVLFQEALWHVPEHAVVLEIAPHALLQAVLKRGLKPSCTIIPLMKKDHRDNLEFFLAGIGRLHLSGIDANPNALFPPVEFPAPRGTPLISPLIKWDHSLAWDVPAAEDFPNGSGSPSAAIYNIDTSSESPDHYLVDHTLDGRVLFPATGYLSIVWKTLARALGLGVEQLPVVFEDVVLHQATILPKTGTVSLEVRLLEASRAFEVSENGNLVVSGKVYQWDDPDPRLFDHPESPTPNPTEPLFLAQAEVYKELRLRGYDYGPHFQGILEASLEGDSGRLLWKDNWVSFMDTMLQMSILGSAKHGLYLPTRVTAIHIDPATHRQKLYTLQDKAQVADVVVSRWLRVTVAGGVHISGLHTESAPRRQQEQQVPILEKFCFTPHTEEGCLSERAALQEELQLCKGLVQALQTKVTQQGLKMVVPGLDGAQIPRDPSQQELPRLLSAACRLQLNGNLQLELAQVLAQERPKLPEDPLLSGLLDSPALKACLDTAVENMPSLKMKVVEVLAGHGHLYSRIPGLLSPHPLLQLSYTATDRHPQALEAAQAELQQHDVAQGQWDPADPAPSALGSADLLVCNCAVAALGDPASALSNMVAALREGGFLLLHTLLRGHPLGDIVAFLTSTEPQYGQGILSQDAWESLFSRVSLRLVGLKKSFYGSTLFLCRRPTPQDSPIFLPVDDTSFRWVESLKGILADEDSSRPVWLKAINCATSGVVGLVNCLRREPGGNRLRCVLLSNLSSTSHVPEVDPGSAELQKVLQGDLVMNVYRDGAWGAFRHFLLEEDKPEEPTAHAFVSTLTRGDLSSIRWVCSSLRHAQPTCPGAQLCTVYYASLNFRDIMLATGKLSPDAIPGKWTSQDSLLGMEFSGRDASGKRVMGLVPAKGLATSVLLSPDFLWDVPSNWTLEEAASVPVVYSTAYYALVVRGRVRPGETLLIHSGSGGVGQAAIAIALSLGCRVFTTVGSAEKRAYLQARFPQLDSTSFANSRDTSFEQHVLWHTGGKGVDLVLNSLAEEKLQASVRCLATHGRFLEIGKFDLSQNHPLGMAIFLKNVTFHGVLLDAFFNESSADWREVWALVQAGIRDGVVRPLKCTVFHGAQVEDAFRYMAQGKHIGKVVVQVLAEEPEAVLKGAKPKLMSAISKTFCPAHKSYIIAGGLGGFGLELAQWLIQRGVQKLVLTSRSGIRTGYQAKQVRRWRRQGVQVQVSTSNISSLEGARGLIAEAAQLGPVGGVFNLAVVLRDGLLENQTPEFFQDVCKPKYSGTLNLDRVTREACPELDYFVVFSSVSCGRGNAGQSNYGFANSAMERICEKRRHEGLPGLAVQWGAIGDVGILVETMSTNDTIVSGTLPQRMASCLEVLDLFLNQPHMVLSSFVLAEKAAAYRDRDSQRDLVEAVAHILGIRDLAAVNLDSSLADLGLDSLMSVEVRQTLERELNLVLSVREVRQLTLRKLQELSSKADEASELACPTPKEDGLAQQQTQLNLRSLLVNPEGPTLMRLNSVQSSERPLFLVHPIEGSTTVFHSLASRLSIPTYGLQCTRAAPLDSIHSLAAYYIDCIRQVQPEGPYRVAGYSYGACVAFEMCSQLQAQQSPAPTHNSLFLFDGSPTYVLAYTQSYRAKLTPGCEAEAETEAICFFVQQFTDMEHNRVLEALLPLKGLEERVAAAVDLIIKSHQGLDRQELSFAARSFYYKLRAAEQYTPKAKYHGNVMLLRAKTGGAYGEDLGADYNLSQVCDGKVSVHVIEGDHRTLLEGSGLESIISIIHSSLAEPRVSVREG

[6] = biological target: T3, Fatty acid synthase; test: inhibition of human FAS-TE enzyme activity – biochemical, kinetic fluorescence intensity, dose response (AID 624326); type: functional;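 note: rate of fluorescence rise from hydrolysis of a fluorogenic O-methyl fluorescein ester substrate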
[7] = biological target: T4, Rac GTPase-activating protein 1 (Homo sapiens, UniProt Q9H0H5); test: blockers of MgcRacGAP-driven Rac1 GTP hydrolysis – biochemical, ADP Hunter fluorescence, primary and confirmatory, confirmation (AID 624330); type: functional
T4 sequence (Q9H0H5 whole entry): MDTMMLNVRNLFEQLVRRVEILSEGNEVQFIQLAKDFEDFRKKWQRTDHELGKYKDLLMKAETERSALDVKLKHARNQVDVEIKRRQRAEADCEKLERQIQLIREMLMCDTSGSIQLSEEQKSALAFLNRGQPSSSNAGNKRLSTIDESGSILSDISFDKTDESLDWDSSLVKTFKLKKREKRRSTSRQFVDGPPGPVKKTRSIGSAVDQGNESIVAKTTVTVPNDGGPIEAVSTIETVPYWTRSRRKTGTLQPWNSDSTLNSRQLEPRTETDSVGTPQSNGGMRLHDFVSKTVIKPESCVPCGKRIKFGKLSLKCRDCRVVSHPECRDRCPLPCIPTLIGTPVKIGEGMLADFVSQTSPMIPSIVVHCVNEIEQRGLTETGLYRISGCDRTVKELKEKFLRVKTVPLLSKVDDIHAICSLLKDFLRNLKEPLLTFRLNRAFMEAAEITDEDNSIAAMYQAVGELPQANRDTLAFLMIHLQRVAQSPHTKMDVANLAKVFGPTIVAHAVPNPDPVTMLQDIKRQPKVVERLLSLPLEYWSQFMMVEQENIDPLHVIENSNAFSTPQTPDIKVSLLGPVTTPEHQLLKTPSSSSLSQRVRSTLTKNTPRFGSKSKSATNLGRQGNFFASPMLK

[8] = biological target: T5, Calpain-2 catalytic subunit (Sus scrofa, UniProt P43367); test: m-calpain protease blockers, concentration series – biochemical, fluorogenic peptide substrate, dose response (AID 1420); type: functional
T5 sequence (P43367 whole entry): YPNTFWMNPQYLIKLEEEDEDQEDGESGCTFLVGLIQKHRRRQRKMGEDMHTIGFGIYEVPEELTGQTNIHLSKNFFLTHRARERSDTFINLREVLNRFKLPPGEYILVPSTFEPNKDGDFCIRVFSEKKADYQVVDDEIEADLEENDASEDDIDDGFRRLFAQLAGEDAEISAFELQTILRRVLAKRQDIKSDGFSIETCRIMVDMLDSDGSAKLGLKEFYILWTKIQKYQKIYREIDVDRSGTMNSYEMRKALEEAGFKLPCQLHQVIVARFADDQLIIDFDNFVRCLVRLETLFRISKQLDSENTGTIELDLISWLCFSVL

[9] = biological target: FAD-linked sulfhydryl oxidase ALR (Homo sapiens, UniProt P55789); test: ALR-catalysed DTT oxidation blockers – biochemical, H2O2 detection, luminescence, cherry-pick, dose response (AID 493248)
Chain of FAD-linked sulfhydryl oxidase ALR (P55789 whole entry): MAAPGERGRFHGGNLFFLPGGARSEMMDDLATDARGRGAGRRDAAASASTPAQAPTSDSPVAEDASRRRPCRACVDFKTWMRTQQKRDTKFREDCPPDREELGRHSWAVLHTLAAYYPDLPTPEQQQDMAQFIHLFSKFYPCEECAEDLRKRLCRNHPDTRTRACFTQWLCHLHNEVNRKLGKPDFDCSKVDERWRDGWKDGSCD

[10] = tested on: BJ; test: BJ-TERT-LT-ST fibroblast viability loss – cell-based, RAS-independent, luminescence, dose response (AID 1935); type: functional; settings: Homo sapiens;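 note: BJ fibroblasts immortalized with TERT plus LT and ST oncogenes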
[11] = tested on: BJ; test: BJ-TERT fibroblast viability loss – cell-based, RAS-independent, luminescence, dose response (AID 1933); type: functional; settings: Homo sapiens
[12] = DRD fibroblast viability loss – cell-based, non-viral oncogenic, luminescence, dose response (AID 1934); type: functional; settings: Homo sapiens
[13] = tested on: BJ; test: cells; type: functional, cell-based; settings: Homo sapiens
[14] = Trypanosoma cruzi growth suppression in host cells – NIH3T3 host cells, beta-gal luminescence, confirmation (AID 2044); type: functional, cell-based;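 note: intracellular parasites grown in NIH/3T3 mouse fibroblasts as host cells; luminescent beta-galactosidase reporter signal from transgenic T. cruzi replicating inside host cells; inhibitors lower the luminescence signal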
[15] = NIH3T3 cell viability loss – ATP luminescence, mouse fibroblasts, counter-screen, dose response (AID 2010); type: functional, cell-based;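 note: cells exposed to compound for about 90 hours before reading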
[16] = biological target: Heat shock protein HSP 90-alpha (Homo sapiens, UniProt P07900); type: functional, organism-based
[17] = biological target: Luciferin 4-monooxygenase (Photinus pyralis, UniProt P08659); test: inhibition of purified Photinus pyralis luciferase – biochemical, luminescence, dose response (AID 1891)
Chain of Luciferin 4-monooxygenase (P08659 whole entry): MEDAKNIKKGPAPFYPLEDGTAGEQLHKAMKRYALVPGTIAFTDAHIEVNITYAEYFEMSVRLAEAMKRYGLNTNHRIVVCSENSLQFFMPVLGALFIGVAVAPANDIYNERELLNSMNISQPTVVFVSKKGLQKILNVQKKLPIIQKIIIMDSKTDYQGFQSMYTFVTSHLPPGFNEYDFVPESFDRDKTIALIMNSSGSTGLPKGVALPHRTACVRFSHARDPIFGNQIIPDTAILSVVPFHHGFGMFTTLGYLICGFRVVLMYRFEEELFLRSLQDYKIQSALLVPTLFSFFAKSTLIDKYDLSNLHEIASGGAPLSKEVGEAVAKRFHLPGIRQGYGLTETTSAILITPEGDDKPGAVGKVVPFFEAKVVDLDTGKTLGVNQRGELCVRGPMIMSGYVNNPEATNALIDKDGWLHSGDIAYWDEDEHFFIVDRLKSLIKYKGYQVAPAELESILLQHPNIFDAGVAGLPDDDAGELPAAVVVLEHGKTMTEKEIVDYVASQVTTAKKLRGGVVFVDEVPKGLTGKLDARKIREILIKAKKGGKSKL

[18] = tested on: INS1; test: INS-1E survival protection against cytokine death – cell-based, luminescence, retest, dose response (AID 449756); type: functional; settings: Rattus norvegicus;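 note: cell death triggered by IL-1 beta plus TNF-alpha plus IFN-gamma mixture; protective hits raise ATP signal compared with cytokine alone wells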
[19] = Luminescence Cell-Based Dose Confirmation HTS to Identify Inhibitors of Platelet Dense Granule Release. [Related pubchem assays: 1663 (Primary HTS), 1678 (Summary of Project)]; type: functional
[20] = biological target: T6, Heat shock factor protein 1 (Mus musculus, UniProt P38532); test: decrease of HSF1-responsive luciferase luminescence – cell-based, NIH3T3, dose retest, confirmation (AID 2382); type: functional;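 note: NIH3T3 fibroblasts with HSF1-driven luciferase reporter stressed by proteasome inhibitor MG132; luminescence from HSF1-driven luciferase expression after 8 hours of MG132 stress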
T6 sequence (P38532 whole entry): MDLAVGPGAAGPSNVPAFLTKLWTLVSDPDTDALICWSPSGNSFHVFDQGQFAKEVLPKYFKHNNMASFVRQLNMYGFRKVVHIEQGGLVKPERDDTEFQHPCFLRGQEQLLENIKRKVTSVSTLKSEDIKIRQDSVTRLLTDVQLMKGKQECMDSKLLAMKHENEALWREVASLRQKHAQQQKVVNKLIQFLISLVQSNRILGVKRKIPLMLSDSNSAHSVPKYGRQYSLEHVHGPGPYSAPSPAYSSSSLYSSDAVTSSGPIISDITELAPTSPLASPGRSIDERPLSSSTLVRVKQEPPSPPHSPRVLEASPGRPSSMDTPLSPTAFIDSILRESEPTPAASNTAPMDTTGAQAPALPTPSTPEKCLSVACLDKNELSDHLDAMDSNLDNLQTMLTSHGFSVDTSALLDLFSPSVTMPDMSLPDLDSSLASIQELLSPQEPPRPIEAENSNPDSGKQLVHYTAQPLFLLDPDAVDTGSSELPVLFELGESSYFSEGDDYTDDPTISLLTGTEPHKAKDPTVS

[21] = biological target: T6, Heat shock factor protein 1; test: enhancement of HSF1-driven luciferase signal – cell-based, NIH3T3, luminescence, dose retest, confirmation (AID 435004); type: functional;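 note: stress induced by proteasome inhibitor MG132 added 30 min after compound; luciferase reporter driven by HSF1 response element in NIH3T3 cells; actives raise luminescence as potentiators of the MG132 stress response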
[22] = tested on: SN12K1; test: cells; type: functional; settings: Homo sapiens

Cc1ccc(-n2c(=O)c(C#N)cc3c(=O)n4ccccc4nc32)cc1C
EC50 [1]: 55.8 µM (active)
EC50 [2]: > 300 µM (not active)

S=C(Nc1ccccc1)Nc1ccc(OCc2ccc(Cl)cc2Cl)cc1
AC50 [3]: 0.405 µM (active)
AC50 [4]: 0.406 µM (active)

COc1ccccc1C(=O)Nc1ccnn1C1CCN(C(C)CSC)CC1 (stereo unspecified)
EC50 [1]: > 300 µM (inconclusive)
EC50 [2]: > 300 µM (not active)

C[C@@]12C(=O)Nc3ccccc3C(=O)N1[C@H]1c3cc(Br)ccc3OC[C@@H]1[C@@H]2c1ccccc1
IC50 [5]: 16.2 µM (active)
IC50 [6]: 11.8 µM (active)

O=C(COC(=O)c1cc([N+](=O)[O-])ccc1N1CCOCC1)Nc1cc(F)ccc1F
IC50 [5]: 2.25 µM (active)
IC50 [6]: 1.57 µM (active)

Cc1csc(NC(=O)C2CCN(S(=O)(=O)c3ccc4c(c3)oc(=O)n4C)CC2)n1
IC50 [5]: 8.65 µM (active)
IC50 [6]: 6.81 µM (active)

COc1ccc(-n2c(SCc3ccc([N+](=O)[O-])cc3)nnc2-c2ccccc2)cc1
IC50 [5]: 5.24 µM (active)
IC50 [6]: 3.44 µM (active)

O=C(c1ccccc1)c1coc2ccc(O)c(Cl)c12
IC50 [7]: 75.4 µM (active)

O=C(O)c1cc(NN=Nc2ccc(Br)cc2)cc([N+](=O)[O-])c1
IC50 [5]: 5.49 µM (active)
IC50 [6]: 6.81 µM (active)
IC50 [8]: 12.6 µM (not active)

COc1ccc(CNCc2cccc(OC)c2OC)cc1Br
IC50 [7]: 149 µM (active)

COc1ccc(NC2CCCN(C(=O)CCc3cn[nH]c3)C2)cc1 (stereo unspecified)
IC50 [7]: 108 µM (active)
AC50 [9]: 2.19 µM (active)

CC1CCc2nn(CC(=O)NCCN3CCCCC3C)cc2C1 (stereo unspecified)
EC50 [1]: > 300 µM (not active)
EC50 [2]: > 300 µM (not active)

O=C1Nc2ccccc2/C1=C1\SC(=S)N(Cc2ccccc2Cl)C1=O
EC50 [10]: > 75 µM (inconclusive)
EC50 [11]: 10.8 µM (inconclusive)
EC50 [12]: 23 µM (active)
EC50 [13]: > 150 µM (not active)

O=C(NCCOc1ccccc1)c1cc(C(=O)NCCOc2ccccc2)cc([N+](=O)[O-])c1
EC50 [14]: 1.28 µM (active)
IC50 [5]: 5.6 µM (active)
IC50 [6]: 2.75 µM (active)
EC50 [15]: > 60 µM (not active)

Cc1cnc(C(=O)Oc2ccc(-c3ccccc3)cc2)cn1
IC50 [7]: 12.5 µM (active)

O=[N+]([O-])c1ccc(N=Nc2c(Cl)cc(O)cc2Cl)cc1
AC50 [16]: 0.574 µM (active)
EC50 [17]: 0.137 µM (active)
EC50 [10]: 5.78 µM (active)
EC50 [11]: 5.98 µM (active)
EC50 [12]: 4.74 µM (active)
AC50 [18]: 1.73 µM (active)
EC50 [13]: 4.44 µM (active)
EC50 [19]: 1.98 µM (active)

CCC1=Nc2cc(C(=O)NCCN3CCOCC3)ccc2Sc2ccccc21
EC50 [10]: > 150 µM (not active)
EC50 [11]: > 150 µM (not active)
EC50 [12]: > 150 µM (not active)
EC50 [13]: > 150 µM (not active)

CN(C)c1ccc(NS(=O)(=O)c2cc(Cl)ccc2Cl)cc1
IC50 [7]: 57.7 µM (active)
EC50 [20]: > 195 µM (not active)

Cc1ccc(NC(=O)Cn2c(=O)c(C)nc3ccccc32)cc1
EC50 [1]: > 300 µM (not active)
EC50 [2]: > 300 µM (not active)

CCN(C(=O)CSc1ncnc2c1cnn2-c1ccccc1)C1CCS(=O)(=O)C1 (stereo unspecified)
IC50 [5]: 5.88 µM (active)
IC50 [6]: 4.94 µM (active)

O=C(CCC1CCCC1)N1CCN(C2CCCC2)CC1
IC50 [7]: 209 µM (active)

Cc1cccc(COC[C@H](CC(C)C)N2CCN(C(=O)c3ccc(C(C)(C)C)cc3)CCC2=O)c1
IC50 [5]: 7.65 µM (active)
IC50 [6]: 7.54 µM (active)

CC/N=C1\S/C(=C\c2ccc(O)c(OCC)c2)C(=O)N1CC
IC50 [7]: 37.9 µM (active)

C/C(=N\NC(=O)CC1N=C(Cc2ccccc2)NNC1=O)c1ccc(C)cc1 (stereo unspecified)
EC50 [21]: > 260 µM (inactive)
EC50 [10]: > 150 µM (inconclusive)
EC50 [11]: > 150 µM (not active)
EC50 [12]: 44.3 µM (active)
EC50 [13]: > 150 µM (not active)

CN1CCCCC/C1=N\c1ccccc1C#N
IC50 [7]: 113 µM (active)

C[C@@](O)(/C=C/[C@H]1CC=CC(=O)O1)[C@@H](C[C@@H](O)\C=C/C=C\C=C\CO)OP(=O)(O)O [FOSTRIECIN SODIUM]
GI50 [22]: 3.72 µM (inactive)
